Data on 12 molecules can be found in patent publication US4968819A, “Process for the preparation of chromene derivatives” (Alkaloida Vegyeszeti Gyar, priority 1983, dated 1990).

SMILES strings stand for the structures. “Also recorded” adds a separate entry of the source. Like-named read-outs stand apart in the source and are kept apart here.

Data set [1] is described as follows: pK by potentiometrical titration. The format is physicochemical. Particulars: 7-OH. An excerpt:
(§1) This difference can be strengthened by deliberate direction of the reaction conditions to such an extent that selective mono-O-substitution can be carried out with excellent yields. It has been confirmed by various measurements and calculations (PMR, CMR, UV-VLS spectrophotometrical and potentiometric acid-base titrations, pK determinations, "all valence" CNDO quantumchemical calculations. electrostatical potential map calculation) that the hydroxy group in position 7 is the most reactive while the hydroxy groups in positions 5, 6 and 8, respectively, are less reactive.
(1.) is determined by potentiometrical titration and […]

A short description of data set [2]: pK by spectrophotometrical measurement. In kind it is physicochemical. Particulars: for pK7 (2.): 7-OH; for pKX (2.): second OH, X = 5, 6 or 8.
Text: as §1
(2.) according to spectrophotometrical measurement).

A further data set relates to Caenorhabditis elegans. Description: Caenorhabditis elegans test (treated NGM agar plate, young adults). The format is in vivo. The protocol: (5) Caenorhabditis elegans 0.5 ml of the acetonous solution of the test compound is applied onto a NGM agar plate free from bacteria in a Petri dish. After the acetone has dried 25-30 young adults are placed on the plate. After 24 hours the surviving and killed insects are counted.

The test system of data set [3] is cotton bug (Dysdercus fasciatus). Description: Cotton bug test (topical application on II. stage larvae). Particulars: for AJH effect: adultoid symptoms. In kind it is in vivo. As to the method:
(1) Cotton bug test A dilution series is prepared from the test compound with acetone and 0.2 μl of each dilution is topically applied onto the back part of larvae of the II. stage of growth with the aid of a Hamiltion syringe. The active ingredient is absorbed through the cuticula. The animals are kept in a large glass and fed with cotton grains and water. After adult shedding the surviving insects are observed for eventual adultoid symptoms, the egg-reproduction and the development of the ovules is evaluated too. (Remark: in the cotton bug test 50 insects are used).

Data set [4] has as its system tomato root gall nematode (Meloidogyne incognita). The data set can be described thus: Tomato root gall nematode test (II. stage infective larvae, treated NGM agar plate). In kind it is in vivo. Conditions: 72 hours; for mortality at 200 µg/mL / mortality at 400 µg/mL: Meloidogyne incognita. The protocol:
(6) Root gall nematode The test is carried out on II. stage infective larvae, which are collected from the root of tomato plant, placed on a filter and incubated in sterile water at 25° C. The hatched larvae are collected every 24 hours and immediately placed onto the treated nutrient medium. As nutrient medium NGM agar plate free from bacterial is used. 0.5 ml of the acetoneous solution of the test compound is applied onto the surface of the plate in a Petri-dish. After the acetone has evaporated 5 μl of the larva suspension is applied onto each plate. After 72 hours the surviving and killed insects are counted.

The test system of the next data set is insects. Conditions: compared with P2; listed as P3; cited from earlier work.
The next data set concerns mustard beetle. The data set can be described thus: Mustard beetle test (sprayed mustard seedlings). The format is in vivo. Conditions: concentration 1%. As to the method:
Two weeks' old mustard seedlings are sprayed with a solution of 0.1 g of the test compound, 0.5 ml of dimethyl sulfoxide, and 10 μl of 50 EC composition in 10 ml of water. After the spray is dried, 20 mustard larvae of the II. stage are placed on each plant. The sprayed plants are charged every second day. The evaluation is based on the number of the imagos hatching from the nymphs.

Data set [5] has as its system domestic fly (Musca domestica). Description: Domestic fly test (larvae in treated nutrient medium). The format is in vivo. Particulars: 0.1% related to milk, 0.05% related to total nutrient medium. As to the method: The fly larvae are grown on a nutrient medium of the following composition: 2 ml of milk; 2 ml of water; 2 g of wheat bran; 0.1 ml of saturated alcoholic nipagin solution.
The nutrient medium is filled into cylindrical glass vials (30×100 mm) and 25 fly larvae are raised in each vial. The test compound is dissolved in milk; the end concentration (related to milk) amounts to 0.1% which corresponds to 0.05% (related to the total nutrient medium). The solution of the active ingredient is admixed with the nutrient medium whereupon […] of domestic fly larvae of the I. stage are placed into each vial and the vials are closed with a hard cotton-wool stopper. The nymphs emerging from the larvae are collected in each vial, counted and kept in a Petri dish (diameter 25 mm) until flies hatch from the nymphs. The hatched flies are counted.

In data set [6] the test system is cabbage butterfly (Pieris brassicae). Description: Cabbage butterfly test (sprayed cabbage seedlings). In kind it is in vivo. Particulars: 50 EC, 0.1%; for pest or weed control at 0.1 %: Pieris brassicae, read-out: Killing rate of larvae. The protocol: From the 50 EC of the test compound a diluted series is prepared with water and the host seedlings (cabbage) are sprayed with this composition until the spray runs down. The spray is allowed to dry whereupon 20 young larvae of the II. stage are placed on each treated plant and the seedlings are kept under so-called "long-day" illumination (18 hours of illumination and 6 hours of darkness). The nibbled plants are replaced by similarly sprayed plants if necessary. The killing rate of the insects, the growth rate of the larvae and the morphological deformations of the surviving nymphs and adults are registered.
In the 50 EC compositions the concentration of compounds 23 and 25 amounts to 0.01% and that of the other compounds to 0.1%.

Setting [7] is: 200 μg/ml, first test, read-out: mortality 1.
[8] abbreviates: 200 μg/ml, second test, read-out: mortality 2.
Setting [9] is: 200 μg/ml, read-out: mortality Average.
[10] abbreviates: 400 μg/ml, first test, read-out: mortality 1.
Setting [11] is: 400 μg/ml, second test, read-out: mortality 2.
Setting [12] is: 400 μg/ml, read-out: mortality Average.
Setting [13] is: Caenorhabditis elegans, 24 h, read-out: Lethality.

`CC1(C)CC(=O)c2c(O)cc(O)cc2O1` [5-OH 7-OH 4-OH, 5,7-dihydroxy-2,2-dimethyl-4-chromanone]: in data set [1], the “pK7 (1.)” value was determined as 7.4. Besides, in [2], the “pK7 (2.)” value is given as 7.0 and the “pKX (2.)” value is 11.6.
Turning to `CC1(C)CC(=O)c2cc(O)c(O)cc2O1` [6-OH 7-OH 4-H, 6,7-dihydroxy-2,2-dimethyl-4-chromanone], the “pK7 (1.)” value in [1] is given as 6.8. For the same molecule, in data set [2], the “pK7 (2.)” value is recorded as 6.9 and the “pKX (2.)” value is listed as 11.4.
As to `CC1(C)CC(=O)c2ccc(O)c(O)c2O1` [8-OH 7-OH 4-H, 7,8-dihydroxy-2,2-dimethyl-4-chromanone], in data set [1], the “pK7 (1.)” value was determined as 7.2. Also, in data set [2], the “pK7 (2.)” value is reported as 7.2 and the “pKX (2.)” value is 11.6.
Regarding `COc1cc2c(cc1OC)OC(C)(C)C=C2` [Compound 1, 6,7-dimethoxy-2,2-dimethyl-2H-chromene, reference compound], the “Size of descendant population” value in the data set on Caenorhabditis elegans (200 μg/ml) and in the data set on Caenorhabditis elegans (400 μg/ml) was “no descendants” in each case. Further, the LD50 in data set [3] is recorded as 0.6 μg/insect. In addition, the Sterilizing effect in [3] was 10 μg/insect. The molecule also had an AJH effect in [3] of 1 μg/insect. The Nematocidal effect entry in data set [4] (200 μg/ml) and in data set [4] (400 μg/ml) was “strong” throughout. The mortality at 200 µg/mL in [4] (setting [7]), in data set [4] (setting [8]) and in data set [4] (setting [9]) was 76% in each case. Also, the values for the mortality at 400 µg/mL in [4] (setting [10]), in data set [4] (setting [11]) and in data set [4] (setting [12]) were 98%, 95% and 97%, respectively.
As for `CCOc1cc2c(cc1OC)C=CC(C)(C)O2` [Compound 3, 6-methoxy-7-ethoxy-2,2-dimethyl-2H-chromene, reference compound], in the data set on insects, the “effectiveness/activity relative to P2” value is “ten times more active; also recorded: ten times more effective”. Moreover, the “Size of descendant population” value is recorded as “some descendants” in the data set on Caenorhabditis elegans (200 μg/ml) and “no descendants” with Caenorhabditis elegans (400 μg/ml). Moreover, the LD50 in data set [3] came to 0.5 μg/insect. The Sterilizing effect in [3] was found to be 10 μg/insect. This molecule had an AJH effect in [3] of 10 μg/insect. Also, the Nematocidal effect entry in data set [4] (400 μg/ml) is recorded as “strong”. Also, the mortality at 200 µg/mL turned out to be 24% in [4] (setting [7]), 20% in [4] (setting [8]) and 22% in [4] (setting [9]). Also, the values for the mortality at 400 µg/mL in data set [4] (setting [10]), in data set [4] (setting [11]) and in [4] (setting [12]) were 100%, 95% and 97%, respectively.
Regarding `COc1cc2c(cc1OC(C)C)OC(C)(C)C=C2` [Compound 8], the “Size of descendant population” value with Caenorhabditis elegans (200 μg/ml) is given as “reduced”. Further, the “Size of descendant population” value in the data set on Caenorhabditis elegans (400 μg/ml) is on record as “no descendants”. Besides, in the data set on Caenorhabditis elegans (setting [13]), the mortality at 200 µg/mL is 70% and the mortality at 400 µg/mL is 80%. In addition, in data set [3], the LD50 is recorded as 0.45 μg/insect, the Sterilizing effect was 0.2 μg/insect and the AJH effect came out at 1 μg/insect.
In turn, `CC(C)=CCOc1cc2c(cc1OCC=C(C)C)OC(C)(C)C=C2` [Compound 10] displayed an LD50 in [3] of 0.6 μg/insect.
As to `CCC(C)Oc1cc2c(cc1OC)C=CC(C)(C)O2` (stereo not shown) [Compound 20], in data set [3], the LD50 amounted to 0.4 μg/insect and the AJH effect is 0.1 μg/insect.
Molecule `COc1cc2c(cc1OCC(C)C)OC(C)(C)C=C2` [Compound 21] came in with an LD50 in data set [3] of 0.4 μg/insect.
Consider `Cc1cc(OCC(C)C)cc2c1C=CC(C)(C)O2` [Compound 42], for which, in the data set with mustard beetle, the “Survival, adults” value came to 27%. In data set [5], this molecule gave a Survival adult of 25.5% and a Survival nymph of 45.4%. Also, the pest or weed control at 0.1 % in data set [6] was 100%.
Turning to `CCCOc1ccc2c(c1OC)OC(C)(C)C=C2` [Compound 51], the “Survival, adults” value in the data set with mustard beetle was 45%. Besides, in data set [5], the Survival adult worked out at 0% and the Survival nymph worked out at 12%. Moreover, in data set [6], the pest or weed control at 0.1 % amounted to 100%.
In data set [5], `COc1c(OC(C)C)ccc2c1OC(C)(C)C=C2` [Compound 52] gave a Survival adult of 0% and a Survival nymph of 12%. Further, in data set [6], the Survival adult amounted to 32%, the Survival nymph stood at 36% and the pest or weed control at 0.1 % was found to be 64%. Further, the “Size of descendant population” value with Caenorhabditis elegans (200 μg/ml) is “reduced”. Also, the “Size of descendant population” value with Caenorhabditis elegans (400 μg/ml) is “reduced”.
